In ChEMBL document CHEMBL2034839, “Pharmacophore Refinement Guides the Rational Design of Nanomolar-Range Inhibitors of the Botulinum Neurotoxin Serotype A Metalloprotease” (ACS Med Chem Lett, 2010):
Activity calls are given as the source filed them. No cut-off for these calls is given here.

Key:
[1] = molecular target: Botulinum neurotoxin type A (Clostridium botulinum, UniProt P0DPI0); assay: Inhibition of Clostridium botulinum BoNT/A light chain assessed as inhibition of SNAP-25 (187-203) substrate hydrolysis by RP-HPLC-based assay in presence of excess Zn(II)
[2] = molecular target: Botulinum neurotoxin type A (Clostridium botulinum) (UniProt P0DPI0); assay: Competitive inhibition of Clostridium botulinum BoNT/A light chain assessed as inhibition of SNAP-25 (187-203) substrate hydrolysis by Dixon plot analysis
Sequence of Botulinum neurotoxin type A (Clostridium botulinum) (P0DPI0 2-448 limits assumed): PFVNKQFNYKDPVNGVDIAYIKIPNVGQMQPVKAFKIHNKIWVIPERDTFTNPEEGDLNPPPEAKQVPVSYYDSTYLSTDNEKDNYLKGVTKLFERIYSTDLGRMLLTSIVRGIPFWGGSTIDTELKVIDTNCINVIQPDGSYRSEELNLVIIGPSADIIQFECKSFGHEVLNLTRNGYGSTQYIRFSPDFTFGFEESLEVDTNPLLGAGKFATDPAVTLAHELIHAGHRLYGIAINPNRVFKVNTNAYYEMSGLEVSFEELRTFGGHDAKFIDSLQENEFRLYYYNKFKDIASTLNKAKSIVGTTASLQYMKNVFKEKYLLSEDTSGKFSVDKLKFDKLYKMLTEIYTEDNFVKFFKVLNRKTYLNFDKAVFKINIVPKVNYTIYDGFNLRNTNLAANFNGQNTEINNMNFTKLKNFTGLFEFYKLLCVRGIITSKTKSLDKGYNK

Sequence of Botulinum neurotoxin type A (P0DPI0 2-448 limits assumed): as above

| SMILES | Ki [1] [µM] | inhibition [2] |
| --- | --- | --- |
| CCCCNC(=O)c1cc(NC(=O)c2ccc(C(=O)Nc3cc(C(=O)NCCCC)cc(C4=NCCN4)c3)cc2)cc(C2=NCCN2)c1 | 8.52 |  |
| O=C(NCCNc1ccnc2cc(Cl)ccc12)c1cc(NC(=O)c2ccc(C(=O)Nc3cc(C(=O)NCCNc4ccnc5cc(Cl)ccc45)cc(C4=NCCN4)c3)cc2)cc(C2=NCCN2)c1 | 2.12 | Active |
| O=C(NCCCCNc1ccnc2cc(Cl)ccc12)c1cc(NC(=O)c2ccc(C(=O)Nc3cc(C(=O)NCCCCNc4ccnc5cc(Cl)ccc45)cc(C4=NCCN4)c3)cc2)cc(C2=NCCN2)c1 | 0.9 | Active |
| O=C(NCCCNc1ccnc2cc(Cl)ccc12)c1cc(NC(=O)c2ccc(C(=O)Nc3cc(C(=O)NCCCNc4ccnc5cc(Cl)ccc45)cc(C4=NCCN4)c3)cc2)cc(C2=NCCN2)c1 | 0.572 | Active |
